Laboratory results as given in patent US20210207095A1, “METHODS OF ACTIVATING CELLS VIA PTP 1B INHIBITION” (Monash University, priority 2018, published 2021).

What was measured:
[1] = Body weight, food intake and body composition of tumour-bearing mice treated with PTP1B inhibitor; assay type: in vivo
Method: (§1) FIG. 20. PTP1B-specific inhibitor MSI-1436 (Trodusquemine) repressed tumor growth. 1×10^6 AT-3 OVA breast cancer cells suspended in 20 μl 1×DPBS were transplanted into mammary fat pads of T cell-specific PTP1B-deficient (Lck-Cre; Ptpn1^fl/fl; n=16) and PTP1B wild-type (Ptpn1^fl/fl; n=16) female mice. 17 days after the tumor cell transplantation, MSI-1436 was applied to recipient mice through intraperitoneal injection in 100 μl 0.9% (v/v) saline with the concentration of 10 mg per kilogram body weight. 8 out 16 mice from both Ptpn1^fl/fl and Lck-Cre; Ptpn1^fl/fl recipients were treated every three days with MSI-1436 before the start of the dark cycle. […] This was accompanied by a reduction in food intake and adiposity but no changes in lean mass (data not shown). Representative results (means±SEM) for the indicated numbers of mice and experiments are shown. Significances were determined using 2-tailed Mann-Whitney U Test.

[2] = tested on: AT-3 OVA breast cancer cells; assay: Syngeneic AT-3 OVA breast cancer tumour growth in mice treated with PTP1B inhibitor; assay type: in vivo; conditions: for Tumor growth: AT-3 OVA cells in mammary fat pads, Ptpn1fl/fl and Lck-Cre;Ptpn1fl/fl female mice, 10 mg/kg i.p. every three days from day 17, vs untreated Ptpn1fl/fl, p<0.0001, 2-way ANOVA
Method: as §1
Breast cancer cells were transplanted into mammary fat pads of mice that were “globally” ptp1b-deficient (Ptpn1^−/−) or T-cell specific ptp1b-deficient (Lck-Cre; Ptpn1^fl/fl). Tumour growth was monitored for 28 days after transplantation. […] (FIG. 18A). […] (FIG. 19A).

Compound: CC(C)[C@@H](CC[C@@H](C)[C@H]1CC[C@H]2[C@@H]3[C@H](O)C[C@H]4C[C@@H](NCCCNCCCCNCCCN)CC[C@]4(C)[C@H]3CC[C@]12C)OS(=O)(=O)O [MSI-1436, Trodusquemine]
- Body weight ([1]; Lck-Cre;Ptpn1fl/fl or Ptpn1fl/fl mice, 10 mg/kg i.p. every three days, p<0.0001): significant weight loss
- Adiposity ([1]; treated mice, data not shown): reduction
- Food intake ([1]; treated mice, data not shown): reduction
- Lean mass ([1]; treated mice, data not shown): no changes
- Tumor growth ([2]; 10 mg/kg): significantly suppressed
- Tumor growth ([2]; listed as MSI1436, 10 mg/kg): repressed the growth
- Tumour burden in mice lacking PTP1B in T cells ([2]; Lck-Cre;Ptpn1fl/fl mice, treatment once every 3 days): did not lead to further reductions in tumour burden
- Tumor burden ([2]; MSI-1436-treated Ptpn1fl/fl mice vs non-treated counterparts, 10 mg/kg i.p. every three days, p<0.0001): significant reduction of tumor burden
